Legend:
[1] = molecular target: T1, α3β3γ complex of BF1 (F1-ATPase from Bacillus subtilis) (Bacillus subtilis, UniProt P37808+P37809); assay: residual initial ATPase activity ([…]-4 s) after preincubation with MgADP; assay type: biochemical; settings: read-out: % inhibition at 1:1 MgADP (5 μM)
T1 construct: gene atpD; recombinant α3β3γ subcomplex without δ and ε; His6-tag at N-terminus of β (kept); initiation codons of α and γ changed to ATG; expressed in E. coli BL21(DE3) from pET21-BF1; nucleotide-free; with ATP synthase gamma chain

[2] = molecular target: T2, α3β3γε complex of BF1 (F1-ATPase from Bacillus subtilis) (Bacillus subtilis, UniProt P37808+P37809); assay: as above; assay type: biochemical; settings: read-out: % inhibition at 1:1 MgADP (5 μM)
T2 construct: gene atpD; recombinant α3β3γ (His6-tag at N-terminus of β, kept) reconstituted with excess separately purified BF1 ε subunit; no δ; E. coli expression; with ATP synthase gamma chain; ATP synthase epsilon chain
T2 sequence (P37812 whole entry): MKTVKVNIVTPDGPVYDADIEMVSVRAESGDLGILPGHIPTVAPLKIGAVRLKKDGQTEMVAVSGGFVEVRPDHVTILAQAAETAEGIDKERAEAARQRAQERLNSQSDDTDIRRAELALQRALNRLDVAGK
T2 sequence (P37809 whole entry): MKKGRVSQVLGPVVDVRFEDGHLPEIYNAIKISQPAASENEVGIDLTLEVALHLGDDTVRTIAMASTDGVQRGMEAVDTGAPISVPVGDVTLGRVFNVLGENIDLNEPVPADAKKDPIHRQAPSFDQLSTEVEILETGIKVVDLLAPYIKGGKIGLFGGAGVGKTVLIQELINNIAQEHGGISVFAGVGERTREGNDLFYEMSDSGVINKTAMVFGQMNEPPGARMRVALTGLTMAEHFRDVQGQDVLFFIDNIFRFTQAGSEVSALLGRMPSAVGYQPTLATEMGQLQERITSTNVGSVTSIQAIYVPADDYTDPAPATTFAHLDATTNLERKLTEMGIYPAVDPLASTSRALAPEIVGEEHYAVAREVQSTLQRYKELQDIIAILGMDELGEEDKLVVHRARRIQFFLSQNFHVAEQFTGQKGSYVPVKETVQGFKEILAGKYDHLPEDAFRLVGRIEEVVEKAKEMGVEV
T2 sequence (P37808 2-502): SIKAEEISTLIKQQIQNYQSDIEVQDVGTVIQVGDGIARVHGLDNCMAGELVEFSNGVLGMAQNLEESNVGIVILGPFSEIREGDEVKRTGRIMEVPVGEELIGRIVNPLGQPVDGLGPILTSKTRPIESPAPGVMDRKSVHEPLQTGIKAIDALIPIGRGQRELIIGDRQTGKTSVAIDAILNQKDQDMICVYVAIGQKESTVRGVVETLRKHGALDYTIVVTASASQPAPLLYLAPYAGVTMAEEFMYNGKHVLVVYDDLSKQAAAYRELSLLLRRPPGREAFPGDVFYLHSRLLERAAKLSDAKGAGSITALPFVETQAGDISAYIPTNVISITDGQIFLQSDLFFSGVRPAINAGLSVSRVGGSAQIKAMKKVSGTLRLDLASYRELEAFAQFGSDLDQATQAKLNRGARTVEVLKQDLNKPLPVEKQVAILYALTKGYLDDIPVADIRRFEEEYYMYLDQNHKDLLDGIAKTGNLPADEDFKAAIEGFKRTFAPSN
T2 sequence (P37810 whole entry, further chain): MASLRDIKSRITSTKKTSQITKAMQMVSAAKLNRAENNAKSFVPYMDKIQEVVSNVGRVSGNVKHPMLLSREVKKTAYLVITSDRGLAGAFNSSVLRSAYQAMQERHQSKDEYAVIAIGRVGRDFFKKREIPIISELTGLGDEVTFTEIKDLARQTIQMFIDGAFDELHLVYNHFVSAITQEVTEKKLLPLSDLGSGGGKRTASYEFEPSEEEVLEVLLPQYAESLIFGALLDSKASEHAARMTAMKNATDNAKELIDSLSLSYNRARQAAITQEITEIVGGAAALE

T1 sequence (P37809 whole entry): as the sequence (P37809 whole entry) above
T1 sequence (P37808 2-502): as the sequence (P37808 2-502) above
T1 sequence (P37810 whole entry, further chain): as the sequence (P37810 whole entry, further chain) above

inhibition at 5 µM [1]: ~50%
inhibition at 5 µM [2]: ~20%
SMILES: Nc1ncnc2c1ncn2[C@@H]1O[C@H](COP(=O)(O)OP(=O)(O)O)[C@@H](O)[C@H]1O [MgADP]

From article PMC3742539, “ε Subunit of Bacillus subtilis F1-ATPase Relieves MgADP Inhibition” (PLoS ONE, 2013)
